The values that follow are results of earlier work, collected in patent publication US20100069397A1, “SEXUAL DYSFUNCTION COMPOUNDS” (Pharmacia AB, priority 2002, published 2010).

The structures appear in SMILES notation.

The conditions of data set [1]: dose of 1-3 mg, taken 0.5-1 h before sexual activity; per WO 00/40226.
The conditions of data set [2]: free base; per European Patent Application No. 0 960 621.

Consider `CN[C@@H]1Cc2cccc3[nH]c(=O)n(c23)C1.O=C(O)/C=C\C(=O)O` [(R)-5,6-dihydro-5-(methylamino)-4H-imidazo[4,5-ij]-quinolin-2(1H)-one (Z)-2-butenedioate (1:1)], for which the “therapeutic effect in sexual dysfunction” value in data set [1] is reported as “therapeutically effective”.

Consider `CCCc1nn(C)c2c(=O)[nH]c(-c3cc(S(=O)(=O)N4CCN(C)CC4)ccc3OCC)nc12` [sildenafil], for which, in data set [2], the solubility in water entry is given as “extremely low solubility in water”.
